Laboratory results published in PubChem BioAssay (NCI).
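Five compound concentrations were applied to cells in 96-well plates for 48 hours; endpoints were derived by simple linear interpolation of the resulting dose-response curve. TGI: total growth inhibition.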

Key:
Assay in all cases: inhibition of tumour cell growth, NCI panel, 48 h
OVCAR-8 ovarian = system: OVCAR-8 ovarian
A549 NSCLC = system: A549 NSCLC
RPMI-8226 leukemia = system: RPMI-8226 leukemia
A498 renal = system: A498 renal
SF-539 CNS = system: SF-539 CNS
MDA-MB-435 = system: MDA-MB-435
SW-620 colon = system: SW-620 colon
UACC-257 melanoma = system: UACC-257 melanoma
OVCAR-4 ovarian = system: OVCAR-4 ovarian
CCRF-CEM leukemia = system: CCRF-CEM leukemia
DU-145 prostate = system: DU-145 prostate
TK-10 renal = system: TK-10 renal
LOX IMVI melanoma = system: LOX IMVI melanoma
SF-268 CNS = system: SF-268 CNS
MDA-N = system: MDA-N
HS 578T breast = system: HS 578T breast
SK-MEL-28 melanoma = system: SK-MEL-28 melanoma
SN12C renal = system: SN12C renal
K-562 leukemia = system: K-562 leukemia
HT29 colon = system: HT29 colon
HCT-116 colon = system: HCT-116 colon
EKVX NSCLC = system: EKVX NSCLC
RXF 393 renal = system: RXF 393 renal
PC-3 prostate = system: PC-3 prostate
MOLT-4 leukemia = system: MOLT-4 leukemia
HOP-92 NSCLC = system: HOP-92 NSCLC
NCI-H460 lung = system: NCI-H460 lung
SNB-75 CNS = system: SNB-75 CNS
SNB-19 CNS = system: SNB-19 CNS
MCF7 breast = system: MCF7 breast
NCI-H226 lung = system: NCI-H226 lung
U251 CNS = system: U251 CNS
ACHN renal = system: ACHN renal
IGROV1 ovarian = system: IGROV1 ovarian
HCC-2998 colon = system: HCC-2998 colon
HL-60(TB) leukemia = system: HL-60(TB) leukemia
OVCAR-5 ovarian = system: OVCAR-5 ovarian
SK-MEL-5 melanoma = system: SK-MEL-5 melanoma
NCI-H522 lung = system: NCI-H522 lung
MALME-3M melanoma = system: MALME-3M melanoma
NCI-H23 lung = system: NCI-H23 lung
HCT-15 colon = system: HCT-15 colon
HOP-62 NSCLC = system: HOP-62 NSCLC
786-0 renal = system: 786-0 renal
NCI/ADR-RES ovarian = system: NCI/ADR-RES ovarian
OVCAR-3 ovarian = system: OVCAR-3 ovarian
SF-295 CNS = system: SF-295 CNS
SK-OV-3 ovarian = system: SK-OV-3 ovarian
M14 melanoma = system: M14 melanoma
SK-MEL-2 melanoma = system: SK-MEL-2 melanoma
KM12 colon = system: KM12 colon
SR leukemia = system: SR leukemia
MDA-MB-231 breast = system: MDA-MB-231 breast
BT-549 breast = system: BT-549 breast
UACC-62 melanoma = system: UACC-62 melanoma
CAKI-1 renal = system: CAKI-1 renal
COLO 205 colon = system: COLO 205 colon
UO-31 renal = system: UO-31 renal

`Nc1nc(Cl)cc(OCC2(CO)CCCC2)n1` was tested, and the TGI (OVCAR-8 ovarian) was > 100 µM, the TGI (A549 NSCLC) was > 100 µM and the TGI (RPMI-8226 leukemia) was > 100 µM. For the same compound, the TGI (A498 renal) was > 100 µM, the TGI (SF-539 CNS) was > 100 µM and the TGI (MDA-MB-435) was > 100 µM. For the same compound, the TGI (SW-620 colon) was > 100 µM, the TGI (UACC-257 melanoma) was > 100 µM and the TGI (OVCAR-4 ovarian) was > 100 µM. The TGI (CCRF-CEM leukemia) was > 100 µM, the TGI (DU-145 prostate) was > 100 µM and the TGI (TK-10 renal) was > 100 µM. For the same compound, the TGI (LOX IMVI melanoma) was > 100 µM, the TGI (SF-268 CNS) was > 100 µM and the TGI (MDA-N) was > 100 µM. The TGI (HS 578T breast) was > 100 µM, the TGI (SK-MEL-28 melanoma) was > 100 µM and the TGI (SN12C renal) was > 100 µM. The TGI (K-562 leukemia) was > 100 µM, the TGI (HT29 colon) was > 100 µM and the TGI (HCT-116 colon) was > 100 µM. The TGI (EKVX NSCLC) was > 100 µM, the TGI (RXF 393 renal) was > 100 µM and the TGI (PC-3 prostate) was > 100 µM. The TGI (MOLT-4 leukemia) was > 100 µM, the TGI (HOP-92 NSCLC) was > 100 µM and the TGI (NCI-H460 lung) was > 100 µM. The TGI (SNB-75 CNS) was > 100 µM, the TGI (SNB-19 CNS) was > 100 µM and the TGI (MCF7 breast) was > 100 µM. For the same compound, the TGI (NCI-H226 lung) was > 100 µM, the TGI (U251 CNS) was > 100 µM and the TGI (ACHN renal) was > 100 µM. The TGI (IGROV1 ovarian) was > 100 µM, the TGI (HCC-2998 colon) was > 100 µM and the TGI (HL-60(TB) leukemia) was > 100 µM. For the same compound, the TGI (OVCAR-5 ovarian) was > 100 µM, the TGI (SK-MEL-5 melanoma) was > 100 µM and the TGI (NCI-H522 lung) was > 100 µM. The TGI (MALME-3M melanoma) was > 100 µM, the TGI (NCI-H23 lung) was > 100 µM and the TGI (HCT-15 colon) was > 100 µM. For the same compound, the TGI (HOP-62 NSCLC) was > 100 µM, the TGI (786-0 renal) was > 100 µM and the TGI (NCI/ADR-RES ovarian) was > 100 µM. For the same compound, the TGI (OVCAR-3 ovarian) was > 100 µM and the TGI (SF-295 CNS) was > 100 µM.

In the case of `Cc1c(Cc2ccccc2)n(C(C)OCCN(OC(=O)Oc2ccccc2)C(=O)Oc2ccccc2)c(=O)[nH]c1=O` (centres undefined), the TGI (OVCAR-8 ovarian) is reported as 34.7 µM, the TGI (SK-OV-3 ovarian) is reported as 46.3 µM and the TGI (A549 NSCLC) is reported as 73.9 µM. For the same compound, the TGI (RPMI-8226 leukemia) was 79.6 µM, the TGI (M14 melanoma) was 32 µM and the TGI (SK-MEL-2 melanoma) was 37.2 µM. The TGI (SF-539 CNS) was 37.4 µM, the TGI (KM12 colon) was 29.9 µM and the TGI (MDA-MB-435) was 56.5 µM. It also gave a TGI (SW-620 colon) of 41.7 µM, a TGI (UACC-257 melanoma) of 30.2 µM and a TGI (OVCAR-4 ovarian) of 42.8 µM. For the same compound, the TGI (CCRF-CEM leukemia) was 50 µM, the TGI (SR leukemia) was > 100 µM and the TGI (DU-145 prostate) was 85.1 µM. The TGI (SF-268 CNS) was 40.3 µM, the TGI (MDA-N) was 41.4 µM and the TGI (HS 578T breast) was 42.6 µM. The TGI (SK-MEL-28 melanoma) was 42 µM, the TGI (MDA-MB-231 breast) was 38.5 µM and the TGI (SN12C renal) was 40.5 µM. The TGI (K-562 leukemia) was 93.5 µM, the TGI (HT29 colon) was 32.1 µM and the TGI (HCT-116 colon) was 41.6 µM. The TGI (EKVX NSCLC) was 30.4 µM, the TGI (RXF 393 renal) was 30.1 µM and the TGI (BT-549 breast) was 33 µM. It also gave a TGI (UACC-62 melanoma) of 30.5 µM, a TGI (CAKI-1 renal) of 33.9 µM and a TGI (PC-3 prostate) of 58.9 µM. The TGI (MOLT-4 leukemia) was 46.3 µM, the TGI (HOP-92 NSCLC) was 29.7 µM and the TGI (NCI-H460 lung) was 32.7 µM. The TGI (COLO 205 colon) was 34.9 µM, the TGI (SNB-75 CNS) was 20.6 µM and the TGI (UO-31 renal) was 29.3 µM. For the same compound, the TGI (SNB-19 CNS) was > 100 µM, the TGI (MCF7 breast) was 63.8 µM and the TGI (U251 CNS) was 38.3 µM. It also gave a TGI (ACHN renal) of 57.3 µM, a TGI (IGROV1 ovarian) of 31.7 µM and a TGI (HCC-2998 colon) of 31.5 µM. It also gave a TGI (OVCAR-5 ovarian) of 31.6 µM, a TGI (SK-MEL-5 melanoma) of 28.4 µM and a TGI (NCI-H522 lung) of 29.3 µM. The TGI (NCI-H23 lung) was 31 µM, the TGI (HCT-15 colon) was 28.3 µM and the TGI (HOP-62 NSCLC) was 36.7 µM. The TGI (786-0 renal) was 34.3 µM, the TGI (NCI/ADR-RES ovarian) was 39.1 µM and the TGI (OVCAR-3 ovarian) was 37.7 µM. It also gave a TGI (SF-295 CNS) of 30.8 µM.
